Assay results taken from ChEMBL document CHEMBL3286238, “Synthesis of a novel legumain-cleavable colchicine prodrug with cell-specific toxicity” (Bioorg Med Chem, 2014).

Experiments:
[1] = Cytotoxicity against human M38L cells after 48 hrs by MTS assay; assay type: cell-based; conditions: for EC50: Homo sapiens, M38L; for EC25: human, m38l
HEK293 = assay: Cytotoxicity against HEK293 cells after 48 hrs by MTS assay; assay type: cell-based, Homo sapiens; conditions: for EC50: Homo sapiens, HEK293, 48 h; for EC25: human, hek293, 48 h
[2] = Potency index, ratio of EC50 for valyl colchicine to EC50 for compound against HEK293 cells after 48 hrs by MTS assay; assay type: cell-based; conditions: human, read-out: Ratio EC50

| SMILES | EC50 [1] [nM] | EC25 [1] [nM] | EC50 (HEK293) [nM] | EC25 (HEK293) [nM] | selectivity ratio at 48 h [2] |
| --- | --- | --- | --- | --- | --- |
| COc1cc2c(c(OC)c1OC)-c1ccc(OC)c(=O)cc1[C@@H](NC(C)=O)CC2 [COLCHICINE] | 30 | 20 | 30 | 20 | 10 |
| COc1cc2c(c(OC)c1OC)-c1ccc(OC)c(=O)cc1[C@@H](NC(=O)[C@@H](N)C(C)C)CC2.Cl | 300 | 200 | 300 | 80 | – |
